Assay results published in patent US20230310421A1, “MOLECULES FOR USE IN THE TREATMENT OF VIRAL INFECTIONS” (priority 2020, published 2023).

How the values were obtained:
[1] = system: MHV-A59; experiment: Direct (intrinsic) antiviral activity: survival, titer and syncitia formation in L929, BMDMs and LA4 cells; type: cell-based, Murine Hepatitis Virus
[2] = system: L929 cells; experiment: Macrophage extrinsic cytotoxic activity (ECT): supernatant of MHV-infected BMDM on L929 cells, CellTiter-Glo / live imaging; conditions: L929 cells exposed to supernatant from MOI 0.1-infected BMDM

Row | Compound | intrinsic antiviral activity ([1]; drug applied directly on infected L929 cells) | effect on DDP rescue of cell viability of infected L929 cells [1] | effect on ECT (viability in uninfected cells) [2]
1 | N[C@H]1CC[C@H](N[C@@H]2C[C@H]2c2ccccc2)CC1 [Ory1001] | elicited intrinsic antiviral activity |  | 
2 | JAK inhibitor I |  | No effect | no effect
